Source: patent publication US9434711B2 (Janssen Pharmaceutica, NV, priority 2007, dated 2016)

Biological target: canine TRPM8 (Canis lupus familiaris, UniProt Q1A7N1)
Assay: In Vitro Canine TRPM8 Functional Assay (Ca2+ fluorescence, icilin activation)
Format: cell-based
Conditions: for IC50: HEK293 cells stably expressing canine TRPM8, icilin activation, eight-point dose-response, read-out: IC50; for inhibition at 0.5 µM: compound at 0.5 μM, read-out: % Inh @ 0.5; for inhibition at 0.5 µM / inhibition at 0.2 µM: canine TRPM8, icilin activation; for inhibition at 0.2 µM: compound at 0.2 μM, read-out: % Inh @ 0.2
Procedure, shortened: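 Cells (HEK293, stable canine TRPM8) are seeded 24 h before assay. They are then dye-loaded with Calcium 3 at 37 °C followed by room temperature. Compound is added and monitored for 5 min, after which icilin (~80% maximal response) is added.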

Sequence of canine TRPM8 (Q1A7N1 1-1104): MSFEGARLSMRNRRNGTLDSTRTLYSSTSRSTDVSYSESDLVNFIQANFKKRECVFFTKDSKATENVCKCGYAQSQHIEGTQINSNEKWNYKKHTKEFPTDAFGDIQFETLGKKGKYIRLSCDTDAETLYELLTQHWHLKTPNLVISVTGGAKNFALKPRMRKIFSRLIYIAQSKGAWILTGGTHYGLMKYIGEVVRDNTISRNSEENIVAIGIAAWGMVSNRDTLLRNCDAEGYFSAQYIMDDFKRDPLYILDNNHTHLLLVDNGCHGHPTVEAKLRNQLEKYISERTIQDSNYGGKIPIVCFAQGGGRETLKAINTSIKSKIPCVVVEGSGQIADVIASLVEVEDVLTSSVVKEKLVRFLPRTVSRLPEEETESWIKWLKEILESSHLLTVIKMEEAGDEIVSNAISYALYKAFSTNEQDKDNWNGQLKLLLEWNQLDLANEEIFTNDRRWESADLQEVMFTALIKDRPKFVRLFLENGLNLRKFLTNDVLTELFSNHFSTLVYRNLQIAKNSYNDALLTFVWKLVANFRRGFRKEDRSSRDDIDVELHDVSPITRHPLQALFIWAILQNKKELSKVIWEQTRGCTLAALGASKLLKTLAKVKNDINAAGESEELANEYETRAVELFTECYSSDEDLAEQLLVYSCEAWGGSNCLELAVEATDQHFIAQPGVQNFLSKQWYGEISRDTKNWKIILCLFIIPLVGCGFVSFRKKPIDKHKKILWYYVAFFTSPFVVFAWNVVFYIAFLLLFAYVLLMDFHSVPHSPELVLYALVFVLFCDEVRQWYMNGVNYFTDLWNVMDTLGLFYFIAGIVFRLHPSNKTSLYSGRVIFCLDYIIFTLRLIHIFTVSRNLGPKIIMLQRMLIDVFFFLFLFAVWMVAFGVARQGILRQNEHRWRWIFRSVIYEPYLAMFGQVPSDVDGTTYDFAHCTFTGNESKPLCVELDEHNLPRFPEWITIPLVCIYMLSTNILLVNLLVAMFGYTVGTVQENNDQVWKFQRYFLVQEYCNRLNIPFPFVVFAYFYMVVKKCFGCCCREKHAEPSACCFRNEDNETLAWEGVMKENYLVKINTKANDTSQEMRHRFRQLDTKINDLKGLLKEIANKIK

Structure (SMILES)	IC50 [nM]	inhibition at 0.5 µM [%]	inhibition at 0.2 µM [%]
COc1ccccc1CN(c1sc2ccccc2c1Br)S(=O)(=O)c1ccccc1 [Compound 160, N-(3-Bromo-benzo[b]thiophen-2-yl)-N-(2-methoxy-benzyl)-benzenesulfonamide]	35.8	97	
Cc1c(N(CCC(F)(F)F)S(=O)(=O)CC(F)(F)F)sc2ccccc12 [Compound 671, N-(3-Methyl-benzo[b]thiophen-2-yl)-N-(3,3,3-trifluoro-propyl)-2,2,2-trifluoro-ethanesulfonamide]	34.5		100
CCCCN(C1=C(Br)c2ccccc2S1(=O)=O)S(=O)(=O)c1ccc(C(=O)O)cc1 [Compound 435, N-(Butyl)-N-(3-bromo-1,1-dioxo-1H-benzo[b]thiophen-2-yl)-4-carboxy-benzenesulfonamide]	33		95
COC(=O)c1ccc(S(=O)(=O)N(Cc2ccc(F)c(C(F)(F)F)c2)c2sc3ccccc3c2C)o1 [Compound 327, N-(3-Methyl-benzo[b]thiophen-2-yl)-N-(4-fluoro-3-trifluoromethyl-benzyl)-5-carbomethoxy-furan-2-yl-sulfonamide]	37		97
COc1cc(NS(C)(=O)=O)ccc1S(=O)(=O)N(Cc1ccc(F)c(C(F)(F)F)c1)c1cc2ccccc2s1 [Compound 743, N-(Benzo[b]thiophen-2-yl)-N-(4-fluoro-3-trifluoromethyl-benzyl)-4-methanesulfonylamino-2-methoxy-benzenesulfonamide]			32
NCCN(c1sc2ccccc2c1Cl)S(=O)(=O)c1ccccc1 [Compound 270, N-(2-Amino-ethyl)-N-(3-chloro-benzo[b]thiophen-2-yl)-benzenesulfonamide]	338	75	
Cc1nccc(-c2cccc(S(=O)(=O)N(CCCC(F)(F)F)c3sc4ccccc4c3C)c2)n1 [Compound 354, N-(3-Methyl-benzo[b]thiophen-2-yl)-N-(4,4,4-trifluoro-butyl)-3-(2-methyl-pyrimidin-4-yl)-benzenesulfonamide]	106		87
O=S(=O)(c1cccnc1Cl)N(Cc1ccc(F)c(C(F)(F)F)c1)c1sc2ccccc2c1Br [Compound 319, N-(3-Bromo-benzo[b]thiophen-2-yl)-N-(4-fluoro-3-trifluoromethyl-benzyl)-2-chloro-pyridin-3-ylsulfonamide]	24		100

Results, then the compound that gave them:

IC50 [nM]	inhibition at 0.5 µM [%]	inhibition at 0.2 µM [%]	Structure (SMILES)
1		98	O=C(O)c1ccc(S(=O)(=O)N(CC23CC4CC(CC(C4)C2)C3)c2sc3ccccc3c2Br)cc1 [Compound 278, N-(3-Bromo-benzo[b]thiophen-2-yl)-N-(adamant-1-yl-methyl)-4-carboxy-benzenesulfonamide]
5		103	CN(C)C1=C(N(CCC2CC2)S(=O)(=O)c2ccccc2)S(=O)(=O)c2ccccc21 [Compound 643, N-(2-Cyclopropylethyl)-N-(3-dimethylamino-1,1-dioxo-1H-benzo[b]thiophen-2-yl)-benzenesulfonamide]
6		102	Cc1c(N(Cc2cc(C(F)(F)F)ccc2F)S(=O)(=O)c2ccc(C(=O)O)cc2)sc2ccccc12 [Compound 519, N-(3-Methyl-benzo[b]thiophen-2-yl)-N-(2-fluoro-5-trifluoromethyl-benzyl)-4-carboxy-benzenesulfonamide]
18		101	COC(=O)c1ccc(S(=O)(=O)N(CCC(F)(F)F)c2sc3ccccc3c2C(C)(C)O)cc1 [Compound 504, N-(3-(1-Hydroxy-1-methyl-ethyl)-benzo[b]thiophen-2-yl)-N-(3,3,3-trifluoro-propyl)-4-carbomethoxy-benzenesulfonamide]
8.9		102	Cc1c(N(CCC2CC2)S(=O)(=O)c2ccc(N(C)C)cc2)sc2ccccc12 [Compound 738, N-(3-Methyl-benzo[b]thiophen-2-yl)-N-(cyclopropyl-ethyl)-4-dimethylamino-benzenesulfonamide]
